Assay results published in patent publication US9226937B2 (priority 2011, dated 2016).

Key:
cardiac stem cells = details: rats, cited from earlier work
rhabdomyosarcoma cells = details: low dosage; cited from earlier work
injected tumors = details: mice with injected tumors; cited from earlier work
fibrosarcoma cells = details: cited from earlier work
SIRT1 = target: T1, SIRT1 (Homo sapiens, UniProt Q96EB6); assay: SIRT1 Fluorescent Activity Assay/Drug Discovery Kit AK-555; assay type: biochemical; details: stored under ambient conditions
T1 construct: purchased Biomol Research Laboratories, Inc. AK-555
T1 sequence (Q96EB6 1-747): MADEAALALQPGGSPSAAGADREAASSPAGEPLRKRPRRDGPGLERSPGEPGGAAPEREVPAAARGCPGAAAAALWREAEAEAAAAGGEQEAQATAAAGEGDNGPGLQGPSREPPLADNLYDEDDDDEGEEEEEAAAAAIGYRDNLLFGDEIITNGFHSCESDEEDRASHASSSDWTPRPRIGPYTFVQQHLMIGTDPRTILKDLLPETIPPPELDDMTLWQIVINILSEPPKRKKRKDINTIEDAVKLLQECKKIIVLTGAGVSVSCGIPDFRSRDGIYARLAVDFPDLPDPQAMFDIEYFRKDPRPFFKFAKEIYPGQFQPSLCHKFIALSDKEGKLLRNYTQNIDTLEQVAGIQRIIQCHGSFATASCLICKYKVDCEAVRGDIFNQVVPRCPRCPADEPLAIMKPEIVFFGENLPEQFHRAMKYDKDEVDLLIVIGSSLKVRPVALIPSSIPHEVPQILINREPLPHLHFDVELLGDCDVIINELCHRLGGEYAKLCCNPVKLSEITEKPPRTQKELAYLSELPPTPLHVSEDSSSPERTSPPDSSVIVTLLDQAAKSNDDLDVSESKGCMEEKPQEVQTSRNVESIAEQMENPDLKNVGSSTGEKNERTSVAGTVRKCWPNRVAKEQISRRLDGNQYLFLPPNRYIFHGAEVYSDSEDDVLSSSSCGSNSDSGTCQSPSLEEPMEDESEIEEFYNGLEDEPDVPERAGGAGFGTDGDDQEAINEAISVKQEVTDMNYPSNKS
Source text: Small molecules in the form of resveratrol were obtained via ethanol extraction from Vitis vinifera and Polygonum cuspidatum. […] The extract was kept in a nitrogen environment and added to a mixture including approximately 25% by weight quercetin; 33% by weight lecithin; and 9% phytic acid (in the form of rice bran extract). […] The resulting slurry was placed into a capsule-filling machine. Individual dosages were encapsulated in gelatin capsules tinted with titanium oxide (Licaps® capsules available from Capsugel; Greenwood, S.C.; www.capsugel.com). The dosages were encapsulated in a substantially oxygen-free environment using a capsule-filling machine continually flushed with nitrogen (the Capsugel CFS 1000 Capsule Filling and Sealing Machine, available from Capsugel; Greenwood, S.C.; www.capsugel.com). […] These capsule samples were stored under ambient conditions for approximately eight months. The samples were tested for biological activity by determining whether each sample could activate sirtuin enzymes and, in particular, whether the samples stimulated SIRT1 catalytic activity. The samples were tested four months and eight months after encapsulation. Tests were performed using a SIRT1 Fluorescent Activity Assay/Drug Discovery Kit AK-555 (available from Biomol® Research Laboratories, Inc.; Plymouth Meeting, Pa.; www.biomol.com).

In the case of Oc1ccc(/C=C/c2cc(O)cc(O)c2)cc1 [resveratrol, 3,4′,5-trihydroxy-trans-stilbene], the “cardiac functional parameters (left ventricular ejection fraction, fractional shortening)” value (cardiac stem cells; low dose (2.5 mg per kilogram) for two weeks prior to injection of cardiac stem cells) is given as “significantly improved” and the “stem cell survival and proliferation” value (cardiac stem cells; low dose for two weeks prior to injection of cardiac stem cells) is given as “enhanced stem cell survival and proliferation”.

In the case of O=P(O)(O)O[C@H]1[C@H](OP(=O)(O)O)[C@@H](OP(=O)(O)O)[C@H](OP(=O)(O)O)[C@@H](OP(=O)(O)O)[C@H]1OP(=O)(O)O [IP6, (2,3,4,5,6-pentaphosphonooxycyclohexyl)dihydrogen phosphate], the “suppression of growth of rhabdomyosarcoma cells” value (rhabdomyosarcoma cells) is listed as 50%, the “tumor size versus non-treated mice” value (injected tumors) is listed as 50 times smaller and the “survival of mice with injected fibrosarcoma cells” value (fibrosarcoma cells) is listed as “prolong their survival”. The “growth of injected fibrosarcoma cells” value (fibrosarcoma cells; mice) was “reduce the growth”.

With O=c1c(O)c(-c2ccc(O)c(O)c2)oc2cc(O)cc(O)c12 [quercetin] the “biological activity of encapsulated quercetin (ability to stimulate SIRT1 activity compared to when no quercetin is present)” value (SIRT1) was “maintained biological activity”.
